{
  "source": "patent US5428061A",
  "about": "“Organic nitrates and method for their preparation” (Schwarz Pharma AG, priority 1988, dated 1995)",
  "key": {"[1]": {"test_system": "circulatory parameters of a dog that is awake", "assay": "Action of organic nitrates on circulatory parameters of the awake dog after intravenous or oral administration", "assay_type": "in vivo", "conditions": "awake beagle dogs", "method": "Administration of new organic nitrates to detect the nitrate action on the circulatory parameters of a dog that is awake.\nThe purpose of the test is to determine how the new organic nitrates act on various circulatory parameters of a dog that is awake after intravenous or oral administration. All experiments were carried out on trained beagle dogs; the circulatory parameters were measured with an arterial catheter tip manometer and a balloon catheter introduced into the V. jugularis. In order to describe the action on the arterial system, the systolic, mean and diastolic blood pressure (BP) and heart rate (HR) were measured. […] The low pressure system was measured through the central venous pressure (CVP) and the pulmonary arterial pressure (PAP). The control or reference product used was isosorbid-5-mononitrate (ISM-5)."}, "[2]": {"test_system": "isolated perfused rat heart", "assay": "Coronary flow increase and tolerance in isolated perfused working rat heart", "conditions": "for Activity Drop in flow / Maximum Coronary Increase: 100 μM, isolated perfused rat hearts, n = 7; for Maximum Coronary Increase: x ± SEM", "source_text": "Determining the lack of tolerance to the action of new organic nitrates on increasing coronary flow in isolated perfused heart.\nThe purpose of the present investigation was to study the action and the development of tolerance to new organic nitrate compounds on isolated perfused rat heart. For this purpose, a rat heart was isolated and prepared as a \"working heart\".\nIn this experimental arrangement, the heart performs defined circulatory work from which a defined oxygen consumption and coronary flow result. The action of nitrate-like compounds can be measured in this model by the drug-induced coronary flow increase.\nThe resistance of the coronary vessels on an isolated working rat heart was chosen as the parameter for the detection of the action of the nitrate. A rat heart with a weight of about one gram is perfused through the left auricle with a plasma-like solution which contains nutrients and is saturated with oxygen. The left ventricle pumps the solution into the aorta against a defined pressure. Corresponding to the physiological conditions, a part of this solution flows through the coronary vessels for supplying the heart itself. At a defined work of the heart, this fraction, from which the coronary resistance can be calculated, is constant. The addition of a nitrate or other coronary dilating drug causes a drop in this coronary resistance. Therefore, if a constant concentration of an organic nitrate is introduced to the heart, then, after an initial decrease of the resistance, a partial loss of activity occurs within 20 minutes. On this model, the substances also show a coronary dilating effect, but this is not followed by a loss in activity. The maximum drop of the coronary resistance is still completely present after 60 minutes. The tested compounds were compared in an equimolar dosage with 10^-4 M nitroglycerin trinitrate. Continuous infusion of nitroglycerin causes a rapid coronary flow increase by 7.6±1.88 ml/min gww (x±SD). […] Upon further perfusion, the action of nitroglycerin is unchanged. In this experimental model, the new nitrates also show a coronary flow increase, but this is followed by only a very slight drop in the activity."}, "guinea pig heart": {"test_system": "guinea pig heart", "assay": "Coronary flow in working heart model (guinea pig heart)", "conditions": "for EC25: Cavia porcellus, read-out: concentration for a coronary flow increase of 25%", "method": "Finally, the action of N-(3-nitratopivaloyl)-cysteine ethyl ester (Nitrato-Piv-Cy-Et) was characterized on guinea pig heart. […] A flow increase of 25% is achieved even with 380 μg of nitrato-Piv-Cy-Et per liter of perfusion medium, corresponding to 1.3 μmole per liter. The corresponding concentration for glycerol trinitrate (GTN) with 5 mg/liter is at least a factor of 12 times higher. Thus, in the case of Nitrato-Piv-Cy-Et we are dealing with an especially active compound with regard to the vessels."}, "isolated guanyl cyclase": {"molecular_target": "T1, isolated guanyl cyclase (Homo sapiens, UniProt Q02153)", "T1 sequence (Q02153 1-619)": "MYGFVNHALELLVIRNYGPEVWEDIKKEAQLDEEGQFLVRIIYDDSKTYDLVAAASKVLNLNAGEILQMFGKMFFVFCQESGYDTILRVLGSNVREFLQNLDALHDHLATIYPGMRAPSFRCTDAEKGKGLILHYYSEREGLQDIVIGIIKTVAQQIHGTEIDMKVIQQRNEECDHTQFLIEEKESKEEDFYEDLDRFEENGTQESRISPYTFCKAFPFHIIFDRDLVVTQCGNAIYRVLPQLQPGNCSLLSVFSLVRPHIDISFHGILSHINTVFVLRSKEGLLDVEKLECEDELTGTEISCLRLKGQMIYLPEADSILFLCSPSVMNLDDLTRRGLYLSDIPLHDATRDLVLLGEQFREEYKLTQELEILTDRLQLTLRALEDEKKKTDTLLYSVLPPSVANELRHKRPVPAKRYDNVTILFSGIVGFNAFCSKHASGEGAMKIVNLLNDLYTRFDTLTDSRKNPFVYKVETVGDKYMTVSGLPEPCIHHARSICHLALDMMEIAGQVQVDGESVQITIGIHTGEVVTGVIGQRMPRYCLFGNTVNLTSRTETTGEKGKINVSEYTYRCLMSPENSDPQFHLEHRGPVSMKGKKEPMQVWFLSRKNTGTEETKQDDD", "T1 sequence (Q02108 1-690 partner)": "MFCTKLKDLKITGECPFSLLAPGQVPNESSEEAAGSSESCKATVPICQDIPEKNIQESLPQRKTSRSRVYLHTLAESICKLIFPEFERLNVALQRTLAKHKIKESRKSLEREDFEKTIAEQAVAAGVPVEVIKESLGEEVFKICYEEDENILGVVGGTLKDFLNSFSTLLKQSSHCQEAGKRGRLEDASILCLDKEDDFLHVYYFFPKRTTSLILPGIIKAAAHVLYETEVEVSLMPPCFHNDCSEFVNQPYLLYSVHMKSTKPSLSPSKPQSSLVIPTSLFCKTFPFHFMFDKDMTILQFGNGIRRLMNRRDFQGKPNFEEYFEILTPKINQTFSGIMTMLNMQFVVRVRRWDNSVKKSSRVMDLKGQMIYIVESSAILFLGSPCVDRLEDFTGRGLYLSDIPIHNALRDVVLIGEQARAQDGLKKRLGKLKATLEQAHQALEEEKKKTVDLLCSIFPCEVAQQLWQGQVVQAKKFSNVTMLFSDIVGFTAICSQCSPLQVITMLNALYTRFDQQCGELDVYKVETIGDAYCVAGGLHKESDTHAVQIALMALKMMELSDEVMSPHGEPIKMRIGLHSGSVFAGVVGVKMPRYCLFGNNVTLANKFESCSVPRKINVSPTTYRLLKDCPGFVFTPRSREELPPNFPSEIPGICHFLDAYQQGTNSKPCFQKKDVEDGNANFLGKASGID", "assay": "Activation of isolated guanyl cyclase (cGMP formation)", "assay_type": "biochemical", "conditions": "isolated enzyme; for EC50: read-out: concentration necessary for one-half of the maximum activity (ED50) of guanyl cyclase", "source_text": "The concentration necessary for one-half of the maximum activity (ED50) of guanyl cyclase is around 200 μmole/liter. The corresponding value for GTN (in the presence of 5 mmoles/liter of cysteine) is approximately 80 μmoles/liter."}, "[3]": {"conditions": "oral and intravenous administration"}, "[4]": {"conditions": "continuous infusion, 10^-4 M, isolated working rat heart"}, "[5]": {"conditions": "working heart model, guinea pig"}},
  "note": "Read-outs that look alike come from different tables or passages of the source.",
  "data": [
    {"smiles": "O=[N+]([O-])O[C@@H]1CO[C@H]2[C@@H]1OC[C@@H]2O", "note": "[ISM-5, isosorbid-5-mononitrate]", "values": [
      {"measurement": "extensibility of the air chamber", "setting": "[1]; [3]", "value": "increased significantly"},
      {"measurement": "low pressure system pressure", "setting": "[1]; [3]", "value": "decreased"},
      {"measurement": "mean pressure", "setting": "[1]; [3]", "value": "hardly effected"},
      {"measurement": "systolic blood pressure", "setting": "[1]; [3]", "value": "slight decrease"}
    ]},
    {"smiles": "CCOC(=O)[C@H](CS)NC(=O)C(C)(C)CO[N+](=O)[O-]", "note": "[N-(3-nitratopivaloyl)-cysteine ethyl ester]", "values": [
      {"measurement": "bioavailability (comparison between intravenous and oral administration)", "setting": "[1]", "value": "good bioavailability"},
      {"measurement": "course of action on circulatory parameters", "setting": "[1]", "value": "typical of a nitrate"},
      {"measurement": "Activity Drop in flow", "setting": "[2]", "value": 5.2, "unit": "%"},
      {"measurement": "Maximum Coronary Increase", "setting": "[2]", "value": "6.6 ± 0.88", "unit": "ml/min gww"},
      {"measurement": "EC25", "setting": "guinea pig heart; working heart model, guinea pig, converted from μg per liter", "value": 1.3, "unit": "µM"},
      {"measurement": "EC25", "setting": "guinea pig heart; working heart model, guinea pig, per liter of perfusion medium", "value": 0.38, "unit": "µg/mL"},
      {"measurement": "weakening of the coronary dilating effect (tolerance development)", "setting": "guinea pig heart; one hour drenching perfusion, any dose, guinea pig heart", "value": "No weakening of the coronary dilating effect"},
      {"measurement": "effect on coronary flow", "setting": "guinea pig heart; working heart model, guinea pig, very low dose range", "value": "concentration-dependent increase of the coronary flow"},
      {"measurement": "activation of guanyl cyclase (formation of cGMP per unit time)", "setting": "isolated guanyl cyclase", "value": "concentration-dependent activation of the enzyme"},
      {"measurement": "activation of guanyl cyclase without cysteine", "setting": "isolated guanyl cyclase; in vitro, absence of cysteine", "value": "activation occurs in vitro even in the absence of cysteine"},
      {"measurement": "EC50", "setting": "isolated guanyl cyclase", "value": "~200", "unit": "µM"}
    ]},
    {"smiles": "CCOC(=O)[C@H](CCSC)NC(=O)C(C)(C)CO[N+](=O)[O-]", "note": "[N-(3-nitratopivaloyl)-methionine ethyl ester]", "values": [
      {"measurement": "bioavailability (comparison between intravenous and oral administration)", "setting": "[1]", "value": "good bioavailability"},
      {"measurement": "Activity Drop in flow", "setting": "[2]", "value": 7.0, "unit": "%"},
      {"measurement": "Maximum Coronary Increase", "setting": "[2]", "value": "8.3 ± 0.92", "unit": "ml/min gww"}
    ]},
    {"smiles": "O=[N+]([O-])OCC(CO[N+](=O)[O-])O[N+](=O)[O-]", "note": "[nitroglycerine, glycerol trinitrate, reference compound]", "values": [
      {"measurement": "Activity Drop in flow", "setting": "[2]", "value": 56.0, "unit": "%"},
      {"measurement": "Maximum Coronary Increase", "setting": "[2]", "value": "7.6 ± 0.71", "unit": "ml/min gww"},
      {"measurement": "coronary flow increase (x±SD)", "setting": "[2]; [4]", "value": "7.6±1.88", "unit": "ml/min gww"},
      {"measurement": "decrease of flow within 20 minutes", "setting": "[2]; [4]", "value": 55.9, "unit": "%"},
      {"measurement": "EC25", "setting": "guinea pig heart; [5]", "value": 5, "unit": "µg/mL"},
      {"measurement": "factor by which the concentration for 25% flow increase is higher than for Nitrato-Piv-Cy-Et", "setting": "guinea pig heart; [5]", "value": "≥ 12", "unit": "times"},
      {"measurement": "EC50", "setting": "isolated guanyl cyclase; in the presence of 5 mmoles/liter of cysteine", "value": "~80", "unit": "µM"}
    ]}
  ]
}
